What all share (format): functional, cell-based
In one assay the test system is A549. Description: Cytotoxicity against human A549 cells after 3 days by MTT assay. (In general: Tetrazolium assays rely on reduction of a dye to a coloured formazan, in cell work by metabolically active cells.)
Another assay relates to MDA-MB-435. Description: Cytotoxicity against human MDA-MB-435 cells after 3 days by MTT assay.
The next assay relates to LoVo. Description: Cytotoxicity against human LoVo cells after 3 days by MTT assay.
Setting [1] is: Homo sapiens, A549, 72 h, read-out: IC50.
[2] abbreviates: Homo sapiens, MDA-MB-435, 72 h, read-out: IC50.
Setting [3] is: Homo sapiens, LoVo, 72 h, read-out: IC50.

Molecules are shown by their SMILES.

Usually IC50 stands for the midpoint of a concentration-inhibition curve. As to `CCc1c2c(nc3ccc(OC(=O)N4CCC(N5CCCCC5)CC4)cc13)-c1cc3c(c(=O)n1C2)COC(=O)[C@]3(O)CC` [IRINOTECAN], the concentration for half-maximal inhibition (IC50) with A549 (setting [1]) stood at 6.4 µM; in the assay on MDA-MB-435 (setting [2]), 17 µM; in the assay on LoVo (setting [3]), 8.8 µM.
With `CCCCCCn1c2c(c3ccccc31)CCN1C(=O)c3ccccc3N(C)C21` (configuration not stated), the half-inhibitory concentration (IC50) with A549 (setting [1]) was 120 µM; in the assay with MDA-MB-435 (setting [2]), 110 µM; with LoVo (setting [3]), 59 µM.
For `c1ccc(Cn2c(-c3ccccc3)c(-c3ccccc3)c3c2ncn2nc(-c4cccnc4)nc32)cc1`, the IC50 result in the assay with A549 (a549) was “Not Active”; in the assay on MDA-MB-435 (mda-mb-435) it was “Not Active”; with LoVo (setting [3]) it was 180 µM.
Turning to `CN1c2ccccc2C(=O)N2CCc3c(n(CC(=O)O)c4ccccc34)C21` (configuration not stated), the IC50 in the assay with A549 (setting [1]) came out at 72 µM; with MDA-MB-435 (setting [2]), 13 µM; with LoVo (setting [3]) it was 130 µM.
Regarding `Cn1c(=O)n(C)c2cc3c(cc21)nc1c2cccc4c(Br)ccc(c(=O)n31)c42`, the IC50 result in the assay on A549 (a549), in the assay on MDA-MB-435 (mda-mb-435) and in the assay with LoVo (lovo) was “Not Active” throughout.
Regarding `CCOC(=O)n1c2c(c3ccccc31)CCN1C(=O)c3ccccc3N(C)C21` (configuration not stated), the IC50 in the assay on A549 (setting [1]) was 130 µM; with MDA-MB-435 (setting [2]) it was 9.4 µM; in the assay on LoVo (setting [3]), 95 µM.
As for `COCCOC(=O)c1sc2nc3c4ccccc4c(-c4ccc(C)c(C)c4)nn3c(=O)c2c1C`, the values for the 50% inhibitory concentration (IC50) entry in the assay on A549 (a549), in the assay on MDA-MB-435 (mda-mb-435) and with LoVo (setting [3]) were “Not Active”, “Not Active” and 45 µM, respectively.
Regarding `CN1c2ccccc2C(=O)N2CCc3c(n(C(=O)c4ccccc4)c4ccccc34)C21` (configuration not stated), the IC50 in the assay on A549 (setting [1]) was 10 µM; in the assay on MDA-MB-435 (setting [2]), 0.047 µM; in the assay on LoVo (setting [3]), 15 µM.
Consider `CN1c2ccccc2C(=O)N2CCc3c(n(Cc4ccc(Cl)cc4Cl)c4ccccc34)C21` (configuration not stated), for which the IC50 result in the assay with A549 (a549), in the assay on MDA-MB-435 (mda-mb-435) and in the assay on LoVo (lovo) was “Not Active” each time.
Turning to `CCCn1c2c(c3ccccc31)CCN1C(=O)c3ccccc3N(C)C21` (configuration not stated), the half-maximal inhibitory concentration (IC50) entry in the assay on A549 (a549), with MDA-MB-435 (mda-mb-435) and in the assay with LoVo (lovo) was “Not Active” each time.
As for `Cc1cccc2c1nc1c3ccc4c5c(ccc(c(=O)n21)c53)C(=O)NC4=O`, the IC50 entry with A549 (a549), in the assay with MDA-MB-435 (mda-mb-435) and with LoVo (lovo) was “Not Active” each time.
On to `CC(C)n1c2c(c3ccccc31)CCN1C(=O)c3ccccc3N(C)C21` (configuration not stated), for which the half-maximal inhibitory concentration (IC50) entry in the assay on A549 (a549), in the assay with MDA-MB-435 (mda-mb-435) and in the assay with LoVo (lovo) was “Not Active” throughout.
For `CN1c2ccccc2C(=O)N2CCc3c(n(Cc4cccc(Cl)c4)c4ccccc34)C21` (configuration not stated), the IC50 entry with A549 (a549), in the assay on MDA-MB-435 (mda-mb-435) and in the assay on LoVo (lovo) was “Not Active” in each case.
`COc1ccc(Cn2c3c(c4ccccc42)CCN2C(=O)c4ccccc4N(C)C32)cc1` (configuration not stated): the IC50 result in the assay with A549 (a549), with MDA-MB-435 (mda-mb-435) and with LoVo (lovo) was “Not Active” each time.
Turning to `CN1c2ccccc2C(=O)N2CCc3c(n(Cc4ccccc4)c4ccccc34)C21` (configuration not stated), the IC50 in the assay on A549 (setting [1]) was determined as 55 µM; in the assay with MDA-MB-435 (setting [2]), 110 µM; in the assay with LoVo (setting [3]), 67 µM.
Regarding `C=CCN1C(=O)/C(=C2\S/C(=N\c3ccccc3)N(c3ccccc3)C2=O)c2ccccc21`, the concentration for half-maximal inhibition (IC50) entry in the assay with A549 (a549), with MDA-MB-435 (mda-mb-435) and with LoVo (lovo) was “Not Active” in each case.
With `O=C(NCCO)c1ccc2nc3c4ccccc4c4ccccc4c3nc2c1`, the concentration for half-maximal inhibition (IC50) result in the assay on A549 (a549), with MDA-MB-435 (mda-mb-435) and in the assay with LoVo (lovo) was “Not Active” throughout.
`CC1CCc2c(sc3nc4c5ccccc5c(-c5ccccc5)nn4c(=O)c23)C1` (configuration not stated): the IC50 result in the assay with A549 (a549), in the assay on MDA-MB-435 (mda-mb-435) and in the assay with LoVo (lovo) was “Not Active” throughout.
As for `CCOC(=O)C1=C(C)N=c2s/c(=C3\C(=O)N(CC)c4ccccc43)c(=O)n2C1/C=C/c1ccccc1` (configuration not stated), the half-maximal inhibitory concentration (IC50) entry with A549 (a549), in the assay on MDA-MB-435 (mda-mb-435) and in the assay on LoVo (lovo) was “Not Active” in each case.

Source of the values: ChEMBL document CHEMBL1275352, “Selection of evodiamine as a novel topoisomerase I inhibitor by structure-based virtual screening and hit optimization of evodiamine derivatives as antitumor agents” (J Med Chem, 2010).
